Tests used:
Type in all cases: cell-based, mouse
[1] = system: α7 integrin (LacZ reporter in α7βgal+/− myoblasts); experiment: Myoblast α7+/LacZ integrin FDG assay (Burkin assay in myoblasts, 96-well); conditions: α7+/LacZ myoblasts, 96-well
[2] = system: α7 integrin (LacZ reporter in α7+/LacZ myotubes); experiment: Myotube α7 integrin FDG assay (Burkin assay in myotubes, 96-well); conditions: myotubes
[3] = system: β-galactosidase in CMV-LacZ C2C12 myoblasts; experiment: CMV-LacZ secondary screen in C2C12 myoblasts (β-Gal stabilizing assay); conditions: CMV-LacZ C2C12 myoblasts
How it was run: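 A secondary screen identifies compounds that stabilize β-gal independently of the native promoter, using CMV-LacZ C2C12 cells. Curves span 0.5–40 μM at six levels, in duplicate.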

[4] = system: β-galactosidase in CMV-LacZ C2C12 myotubes; experiment: CMV-LacZ secondary screen in C2C12 myotubes (β-Gal stabilizing assay); conditions: C2C12 CMV-LacZ myotubes, fold relative to DMSO
How it was run: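 Dose-response runs at 0.5–40 μM (0.5, 1, 5, 10, 20, 40 μM; N=2 per point) used a clonal C2C12 line carrying CMV-LacZ. Cells were assayed as myoblasts or as differentiated myotubes, and β-galactosidase levels were read with the FDG fluorogenic substrate.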

SMILES	Burkin Assay in Myoblasts, signal relative to DMSO ([1]; 0.5 uM)	Burkin Assay in Myoblasts, signal relative to DMSO ([1]; 1 uM)	Burkin Assay in Myoblasts, signal relative to DMSO ([1]; 5 uM)	Burkin Assay in Myoblasts, signal relative to DMSO ([1]; 10 uM)	Burkin Assay in Myoblasts, signal relative to DMSO ([1]; 20 uM)	Burkin Assay in Myoblasts, signal relative to DMSO ([1]; 40 uM)	Burkin Assay in Myotubes, α7 integrin LacZ reporter signal relative to DMSO ([2]; 0.5 uM)	Burkin Assay in Myotubes, α7 integrin LacZ reporter signal relative to DMSO ([2]; 1 uM)	Burkin Assay in Myotubes, α7 integrin LacZ reporter signal relative to DMSO ([2]; 5 uM)	Burkin Assay in Myotubes, α7 integrin LacZ reporter signal relative to DMSO ([2]; 10 uM)	Burkin Assay in Myotubes, α7 integrin LacZ reporter signal relative to DMSO ([2]; 20 uM)	Burkin Assay in Myotubes, α7 integrin LacZ reporter signal relative to DMSO ([2]; 40 uM)	CMV-LACZ in Myoblasts (β-galactosidase activity relative to DMSO) ([3]; 0.5 uM)	CMV-LACZ in Myoblasts (β-galactosidase activity relative to DMSO) ([3]; 1 uM)	CMV-LACZ in Myoblasts (β-galactosidase activity relative to DMSO) ([3]; 5 uM)	CMV-LACZ in Myoblasts (β-galactosidase activity relative to DMSO) ([3]; 10 uM)	CMV-LACZ in Myoblasts (β-galactosidase activity relative to DMSO) ([3]; 20 uM)	CMV-LACZ in Myoblasts (β-galactosidase activity relative to DMSO) ([3]; 40 uM)	CMV-LACZ in Myotubes, signal relative to DMSO ([4]; 0.5 uM)	CMV-LACZ in Myotubes, signal relative to DMSO ([4]; 1 uM)	other results
O=C(CSc1nnc2c(n1)[nH]c1ccccc12)NCc1ccccc1F [MLS001225512-01]	1.1596	0.9131	1.173	0.8832	1.108	1.284	0.929	1.059	0.9799	0.8235	0.8431	0.7401	0.9597	1.0843	1.1655	1.4266	0.8237	1.0111	1.0162	1.0381	CMV-LACZ in Myotubes, signal relative to DMSO ([4]; 5 uM): 0.9459; CMV-LACZ in Myotubes, signal relative to DMSO ([4]; 10 uM): 1.0077; CMV-LACZ in Myotubes, signal relative to DMSO ([4]; 20 uM): 1.2482; CMV-LACZ in Myotubes, signal relative to DMSO ([4]; 40 uM): 0.8871
COc1cc(NC(=O)OCc2ccccc2)c2ncccc2c1 [MLS002667707-01]	1.0156	0.9172	1.02	1.235	0.9347	0.8314	0.9955	1.01	0.8939	0.954	0.8049	0.7617	1.1434	0.6763	1.1897	1.0803	1.0044	1.1226	0.8905	1.0590	CMV-LACZ in Myotubes, signal relative to DMSO ([4]; 5 uM): 0.9449; CMV-LACZ in Myotubes, signal relative to DMSO ([4]; 10 uM): 1.0227; CMV-LACZ in Myotubes, signal relative to DMSO ([4]; 20 uM): 1.1576; CMV-LACZ in Myotubes, signal relative to DMSO ([4]; 40 uM): 1.1071
Cc1ccsc1CN(C)CC(=O)Nc1ccc([N+](=O)[O-])cc1Cl [MLS001172822-01]	1.233	1.351	0.9662	0.9014	0.987	0.9597	0.9496	0.9315	0.8513	0.861	0.8466	0.7858	0.9304	1.0617	1.1375	1.0904	0.9285	1.2767	1.2590	1.0514	CMV-LACZ in Myotubes, signal relative to DMSO ([4]; 5 uM): 1.2505; CMV-LACZ in Myotubes, signal relative to DMSO ([4]; 10 uM): 1.1819; CMV-LACZ in Myotubes, signal relative to DMSO ([4]; 20 uM): 1.1768; CMV-LACZ in Myotubes, signal relative to DMSO ([4]; 40 uM): 0.6358
